Molecular target: ATP-dependent translocase ABCB1 (Homo sapiens, UniProt P08183)
Assay: TP_TRANSPORTER: transepithelial transport of cyclosporin A in Caco-2 cells
Assay type: functional, cell-based

Chain of ATP-dependent translocase ABCB1 (P08183 whole entry): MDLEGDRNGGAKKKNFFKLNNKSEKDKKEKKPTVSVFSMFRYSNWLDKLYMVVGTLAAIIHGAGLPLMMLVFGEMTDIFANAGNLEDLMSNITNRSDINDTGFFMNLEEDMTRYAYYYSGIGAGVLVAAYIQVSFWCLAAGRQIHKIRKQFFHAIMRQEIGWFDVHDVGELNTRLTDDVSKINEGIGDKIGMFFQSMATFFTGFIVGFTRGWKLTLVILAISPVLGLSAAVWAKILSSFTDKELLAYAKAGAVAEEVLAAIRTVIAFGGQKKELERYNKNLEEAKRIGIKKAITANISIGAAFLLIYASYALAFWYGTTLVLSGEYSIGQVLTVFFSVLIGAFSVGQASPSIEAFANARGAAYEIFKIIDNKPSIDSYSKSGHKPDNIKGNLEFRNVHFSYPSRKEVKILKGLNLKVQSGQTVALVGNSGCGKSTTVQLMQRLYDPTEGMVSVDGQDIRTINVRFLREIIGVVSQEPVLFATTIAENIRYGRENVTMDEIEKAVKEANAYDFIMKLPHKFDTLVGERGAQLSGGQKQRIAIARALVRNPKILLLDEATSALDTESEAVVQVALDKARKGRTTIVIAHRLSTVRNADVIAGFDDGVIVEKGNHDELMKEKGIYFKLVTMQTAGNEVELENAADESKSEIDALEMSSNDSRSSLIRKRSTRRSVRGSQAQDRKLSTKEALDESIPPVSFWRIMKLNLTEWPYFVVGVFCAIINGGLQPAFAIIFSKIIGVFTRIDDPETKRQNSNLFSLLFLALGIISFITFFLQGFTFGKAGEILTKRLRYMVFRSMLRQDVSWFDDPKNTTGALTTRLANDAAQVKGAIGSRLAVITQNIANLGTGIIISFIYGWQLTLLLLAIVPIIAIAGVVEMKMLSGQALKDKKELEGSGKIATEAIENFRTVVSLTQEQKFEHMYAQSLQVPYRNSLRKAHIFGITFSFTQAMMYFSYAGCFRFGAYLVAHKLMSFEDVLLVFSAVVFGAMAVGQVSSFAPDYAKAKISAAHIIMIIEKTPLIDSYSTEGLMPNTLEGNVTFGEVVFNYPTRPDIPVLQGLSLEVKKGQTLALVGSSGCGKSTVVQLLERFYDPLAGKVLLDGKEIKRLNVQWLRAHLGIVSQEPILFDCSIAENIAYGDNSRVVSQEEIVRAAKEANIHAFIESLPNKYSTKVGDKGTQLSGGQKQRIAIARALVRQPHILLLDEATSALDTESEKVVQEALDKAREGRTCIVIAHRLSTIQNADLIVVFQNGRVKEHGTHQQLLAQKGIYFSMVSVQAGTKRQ

| Activity | Sequence |
| --- | --- |
| inhibitor [+] | CREMOPHOR EL |
| inhibitor [+] | CREMOPHOR RH 40 |
